These results are taken from patent publication US20100160349A1, “TRIAZOLOPYRIMIDINE DERIVATIVES AS GLYCOGEN SYNTHASE KINASE 3 INHIBITORS” (priority 2005, published 2010).

Structures are written as SMILES. Structures can show the parent of a compound that is named as a salt.

By melting point is commonly meant the temperature, or range, at which the solid turns liquid.

The target of series [1] is GSK3β (Homo sapiens, UniProt P49841). The series is described as follows: GSK3beta assay (SPA, biotinylated phosphorylated CREB peptide, ATP-P33). In kind it is biochemical. The settings on record: −log IC50 (M); reported as ranges; 5.7 ng/μl GSK3β, 1 μM ATP, room temperature, one hour; read-out: pIC50 (GSK3beta) (converted). The procedure:
(§1) GSK3beta assays were performed at room temperature in a 100 μl reaction volume of 25 mM Tris (pH 7.4) containing 10 mM MgCl2.6H2O, 1 mM DTT, 0.1 mg/ml BSA, 5% glycerol and containing 5.7 ng/μl GSK3β, 5 μM biotinylated phosphorylated CREB peptide, 1 μM ATP, 0.85 μCi/ml ATP-P^33 and a suitable amount of a test compound of formula (I). After one hour, the reaction was terminated by adding 70 μl of Stop mix (0.1 mM ATP, 5 mg/ml streptavidin coated PVT SPA bead pH 11.0). The beads to which the phosphorylated CREB peptide is attached were allowed to settle overnight and the radioactivity of the beads was counted in a microtiterplate scintillation counter and compared with the results obtained in a control experiment (without the presence of a test compound) in order to determine the percentage of GSK3β inhibition. The IC50 value, i.e. the concentration (M) of the test compound at which 50% of GSK3β is inhibited, was calculated from the dose response curve obtained by performing the above-described GSK3β assay in the presence of different amounts of the test compound.

The target of series [2] is GSK3alpha (Homo sapiens, UniProt P49840). Kind of series: GSK3alpha assay (same way as the GSK3beta assay). In kind it is biochemical. The following applies: −log IC50 (M); reported as ranges; 0.25 ng/μl GSK3alpha, 1 μM ATP, room temperature, one hour; read-out: pIC50 (GSK3alpha) (converted). The procedure:
as §1
The GSK3alpha assay was performed in the same way as described above for the GSK3beta assay except for the concentration of GSK3alpha which is 0.25 ng/μl.

GSK3β, sequence (P49841 whole entry, species assumed): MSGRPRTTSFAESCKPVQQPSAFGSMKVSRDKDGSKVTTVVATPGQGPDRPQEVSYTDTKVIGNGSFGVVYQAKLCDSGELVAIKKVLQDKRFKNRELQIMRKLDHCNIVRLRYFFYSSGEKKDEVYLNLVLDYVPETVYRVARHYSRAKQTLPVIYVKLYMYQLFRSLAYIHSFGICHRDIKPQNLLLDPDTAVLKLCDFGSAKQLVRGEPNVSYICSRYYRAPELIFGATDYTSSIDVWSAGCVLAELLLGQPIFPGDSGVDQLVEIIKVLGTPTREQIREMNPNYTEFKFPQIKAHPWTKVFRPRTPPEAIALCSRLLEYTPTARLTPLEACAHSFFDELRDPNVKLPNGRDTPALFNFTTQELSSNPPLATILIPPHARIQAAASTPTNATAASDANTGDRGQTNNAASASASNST
GSK3alpha, sequence (P49840 whole entry, species assumed): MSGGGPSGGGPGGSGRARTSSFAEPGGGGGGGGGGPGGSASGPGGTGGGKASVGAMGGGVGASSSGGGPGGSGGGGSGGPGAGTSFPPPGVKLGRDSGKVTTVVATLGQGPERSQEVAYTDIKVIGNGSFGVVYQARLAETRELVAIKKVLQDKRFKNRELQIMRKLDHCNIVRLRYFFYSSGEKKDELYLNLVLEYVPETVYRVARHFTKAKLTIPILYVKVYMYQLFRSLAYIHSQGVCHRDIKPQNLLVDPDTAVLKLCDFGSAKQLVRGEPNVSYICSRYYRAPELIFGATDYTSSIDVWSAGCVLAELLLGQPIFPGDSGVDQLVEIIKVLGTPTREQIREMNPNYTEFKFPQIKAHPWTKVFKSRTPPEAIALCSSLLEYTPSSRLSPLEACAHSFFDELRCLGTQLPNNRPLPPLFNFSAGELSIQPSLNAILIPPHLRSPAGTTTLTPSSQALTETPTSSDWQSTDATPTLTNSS

Consider `CCOC(=O)NCc1cccc(-n2nnc3cnc(Nc4ccccc4)nc32)c1` [Co. No. 15], for which the IC50 in series [1] and in series [2] was less than 1e-08 M throughout.

As to `Fc1cccc(-n2nnc3cnc(Nc4ccccc4)nc32)c1` [Co. No. 13], the IC50 in series [2] was 1e-08 to 1e-07 M.

In the case of `O=C(NCc1cccc(-n2nnc3cnc(Nc4ccccc4)nc32)c1)C12CC3CC(CC(C3)C1)C2` [Co. No. 6], the IC50 in series [1] and in series [2] was greater than 1e-07 M in each case.

`N#CCc1cccc(-n2nnc3cnc(Nc4ccccc4)nc32)c1` [Co. No. 1] yielded a melting point of 218 to 222 °C. In addition, in series [1], the IC50 was less than 1e-08 M. Also, the IC50 in series [2] is less than 1e-08 M.

In turn, `NCc1cccc(-n2nnc3cnc(Nc4ccccc4)nc32)c1` (as salt: HCl) [Co. No. 9] yielded a melting point greater than 260 °C.

On to `O=C(NCc1cccc(-n2nnc3cnc(Nc4ccccc4)nc32)c1)C1CC1` [Co. No. 14], for which the IC50 in series [2] is greater than 1e-06 M.

As to `NC(=O)Cc1cccc(-n2nnc3cnc(Nc4ccccc4)nc32)c1` [Co. No. 17], the IC50 in series [1] and in series [2] was less than 1e-08 M in each case.

As for `CC(=O)NCc1cccc(-n2nnc3cnc(Nc4ccccc4)nc32)c1` [Co. No. 12], the values for the IC50 in series [1] and in series [2] were no more than 1e-08 M and less than 1e-08 M, respectively.

As to `NCc1cccc(-n2nnc3cnc(Nc4ccccc4)nc32)c1` [Co. No. 9], the IC50 is 1e-08 to 1e-07 M in series [1] and less than 1e-08 M in series [2].

For the compound `COCCOc1cccc(-n2nnc3cnc(Nc4ccccc4)nc32)c1` [Co. No. 3], the melting point is 164 °C. Also, the IC50 in series [1] is 1e-08 to 1e-07 M. The IC50 in series [2] was less than 1e-08 M.

The compound `CC(C)(C)OC(=O)NCc1cccc(-n2nnc3cnc(Nc4ccccc4)nc32)c1` [Co. No. 5] showed a melting point of 196 to 198 °C. Also, the IC50 in series [1] was less than 1e-08 M. For the same compound, the IC50 in series [2] is less than 1e-08 M.

Turning to `O=C(O)Cc1cccc(-n2nnc3cnc(Nc4ccccc4)nc32)c1` [Co. No. 8], the melting point amounted to 241 °C. The IC50 in series [1] was greater than 1e-07 M. For the same compound, the IC50 in series [2] was 1e-08 to 1e-07 M.

`OCCc1cccc(-n2nnc3cnc(Nc4ccccc4)nc32)c1` [Co. No. 10]: the IC50 in series [1] and in series [2] was less than 1e-08 M throughout.

`c1ccc(Nc2ncc3nnn(-c4ccccc4)c3n2)cc1` [Co. No. 4] showed a melting point of 194 to 198 °C. The IC50 in series [1] was 1e-08 to 1e-07 M. Besides, the IC50 in series [2] is 1e-08 to 1e-07 M.

As to `CC(C)CC(=O)NCc1cccc(-n2nnc3cnc(Nc4ccccc4)nc32)c1` [Co. No. 7], the IC50 in series [1] and in series [2] was less than 1e-08 M each time.

For `COCCOCc1cccc(-n2nnc3cnc(Nc4ccccc4)nc32)c1` [Co. No. 2], the melting point is 143 °C. Also, in series [1], the IC50 was less than 1e-08 M. Further, the IC50 in series [2] was less than 1e-08 M.

On to `COCc1cccc(-n2nnc3cnc(Nc4ccccc4)nc32)c1` [Co. No. 11], for which the IC50 in series [1] and in series [2] was less than 1e-08 M throughout.

On to `OCCc1ccc(-n2nnc3cnc(Nc4ccccc4)nc32)cc1` [Co. No. 16], for which the IC50 in series [1] and in series [2] was 1e-08 to 1e-07 M throughout.
